Paper PMC7759686, “Pharmacokinetics and Immunological Effects of Romidepsin in Rhesus Macaques” (Frontiers in Immunology, 2020)
Values joined by “and” are separate entries in the source; they are usually repeats but may differ in a detail not shown here. Identical values can stand only once.

How the values were obtained:
[1] = human, in vivo; cited from earlier work
[2] = RMD pharmacokinetics in plasma and tissues (LC-MS/MS); settings: 7 mg/m^2 4-h IV infusion; for RMD plasma concentration at 2 h postinfusion: second round
[3] = system: H3 and H4 histone acetylation in peripheral CD4+ and CD8+ T cells; test: Histone acetylation assay (flow cytometry); type: in vivo, rhesus macaques (Macaca mulatta); settings: 7 mg/m^2 4-h IV infusion
Experimental: The efficacy of RMD treatment was assessed by monitoring histone acetylation of frozen PBMCs: at the baseline, 6 h postinfusion, and 1, 2, and 5 days postinfusion, using a flow-cytometrical method, as described ([41]). Briefly, separated PBMCs were stained for surface markers for 20 min with: CD3-APC-Cy7 (SP34-2), CD4-V500 (L200), CD8-PE (SK1), CD14-BV570 (M5E2) (BioLegend, San Diego, CA), CD28-PE-CF594 (CD28.2), CD69-BV421 (FN50), CD95-PE-Cy5 (DX2), PD-1-PE-Cy7 (EH12.2H7) (BioLegend); all antibodies were from BD Biosciences, unless otherwise stated. PBMCs were then lysed with PhosFlow Lyse/Fix buffer (BD Biosciences) for 30 min and permeabilized with Perm Buffer [0.4% Triton X-100 in PBA (Sigma)] for 10 min, followed by washing. Permeabilized PBMCs were stained with the following antibodies for intracellular markers: Ac-H4 (3HH4-2C2) (Active Motif, Carlsbad, CA, USA) and Ki-67-Alexa Flour 647 (BD Biosciences). Ac-H4 recognizes motifs on histones H3 and H4 and was conjugated to FITC using Zenon reagent kit (Invitrogen, Carlsbad, CA). Stained PBMCs were then washed, fixed with BD Stabilizing Fixative (BD Biosciences), and acquired with a LSR-II flow cytometer. Data were analyzed with FlowJo software.

[4] = penetration into CSF; cited from earlier work
Experimental: The brain is also a key HIV reservoir ([71]–[73]). […] At 2 h postinfusion, the plasma concentration was 19.9 ng/ml (37.6nM). Assuming a 2% penetration, this would h ...

[5] = system: HIV; settings: cited from earlier work
From the text: Because we measured the prodrug form of RMD, it is possible that the maintained concentrations are due to either greater distribution to the tissue compartments, reduced conversion of the RMD to the active, reduced form, trapping of RMD between the extracellular and interstitial spaces, or a combination of these. As ...

[6] = system: CD3+ T cells in tissues; test: CD3+ T cell frequency in intestine and LNs by immunofluorescence; type: in vivo, rhesus macaques (Macaca mulatta); settings: for CD3+ T cells in superficial LNs, area fraction: average, pretreatment 30%, 7 mg/m^2
Experimental: CD3^+ T cell frequency in the intestine and LNs was assessed through immunofluorescence (IF), as described ([55]). Fixed, paraffin-embedded tissues from the three RMs were cut and placed onto microscope slides. The slides were treated three times with xylene (Thermo Fisher Scientific), run through an ethanol battery, washed with dH2O, and placed into 1× PBS (Thermo Fisher Scientific). Slides were microwaved with Antigen Unmasking Solution (Vector Labs, Burlingame, CA) for antigen retrieval. Once slides had cooled, they were washed three times in 1× PBS and the tissues were circled with Immedge Pen (Vector Labs) to create a hydrophobic barrier. Dako Serum-Free Protein Block (Agilent, Santa Clara, CA) was added to the tissues. The Dako Protein Block was dumped off and the slides incubated with mouse α-CD3 (Agilent). The primary antibody was dumped off and slides washed in 1× PBS as previously noted. The remaining steps were completed in the dark. The slides were incubated with the secondary antibody, goat α-mouse (Alexa Fluor 488) (Invitrogen) followed by a subsequent 1× PBS wash. The slides were incubated with DAPI (Millipore Sigma, Burlington, MA), and then dumped off and washed with 1× PBS, followed by dH2O, and dried. Coverslips were then mounted to the slides with fluorescent mounting media (Agilent). Slides were visualized and imaged with Zeiss Imager M1 microscope and Axiovision software [V4.8.2.0 (Carl Zeiss AG, Oberkochen, Germany)]. Image quantifications were performed using the FIJI distribution ([56]) of ImageJ 1.52c ([57]), where positive fluorescent signals were isolated by setting color thresholds and the percent positive area was calculated.

[7] = Cortisol ELISA in plasma; type: in vivo, rhesus macaques (Macaca mulatta); settings: RMD-infused RMs vs saline controls (peak 6 h, decreasing from day 1); n = 3 per group
From the text: Cortisol ELISA. To assess the levels of stress associated with the different animal procedures used, frozen plasma was thawed, and dilutions of either 1:16 to 1:50 were used to measure the circulating cortisol levels with a cortisol ELISA kit (ENZO, Farmingdale, NY, USA), as per manufacturer instructions. The results were read at 405 nm on a Ultrospec 2100 Pro (Amersham Biosciences, Little Chalfont, UK) and results interpolated by Prism 8.4.3 (GraphPad Software, Inc., San Diego, CA) using 4 parameter logistic curve fitting.

[8] = kel from mean concentration-time profile of 3 RMs

SMILES: C/C=C1\NC(=O)[C@H]2CSSCC/C=C/[C@H](CC(=O)N[C@H](C(C)C)C(=O)N2)OC(=O)[C@H](C(C)C)NC1=O [RMD, romidepsin]
- terminal elimination half-life in clinical studies [1]: 6.6 to 19 h
- terminal elimination half-life reported in humans [1]: ~ 3.5 h
- GI tract terminal half-life relative to plasma [2]: 1.8 fold
- LN terminal half-life relative to plasma [2]: seven-fold longer
- plasma concentration at 8 h postinfusion [2]: 5.16 nM
- time with quantifiable concentrations in GI tract ([2]; last sampling 10 days): 10 days postinfusion
- time with quantifiable concentrations in LNs ([2]; last sampling 10 days): 10 days postinfusion
- mean terminal half-life in plasma ([2]; 3 SIV-naïve RMs, kel from semi-log regression of individual plasma data, observations after 96 h omitted): 15.3 h
- RMD concentration in intestine at 4 h postinfusion ([2]; animal RM32): 354 ng/g
- RMD plasma concentration at 2 h postinfusion ([2]; animal RM32, LC-MS/MS): 47 ng/mL
- RMD concentration in intestine at 4 h postinfusion ([2]; animal RM33): 3,932 ng/g
- RMD plasma concentration at 2 h postinfusion ([2]; animal RM33, LC-MS/MS): 7.7 ng/mL and 8 ng/mL
- RMD plasma concentration at 2 h postinfusion ([2]; animal RM71, LC-MS/MS): 4.7 ng/mL and 5 ng/mL
- plasma concentration at 2 h postinfusion ([2]; group value of 3 RMs): 19.9 ng/mL
- RMD concentration in LNs at 4 h postinfusion ([2]; individual values of 3 RMs, superficial LNs, tissue density 1.0 g/ml assumed, LC-MS/MS): 70 ng/mL and 75 ng/mL and 101 ng/mL
- mean terminal half-life in gastrointestinal tract [2, 8]: 28 h
- mean terminal half-life in lymph nodes [2, 8]: 110 h
- RMD concentration in GI tract at 4 h postinfusion, median ([2]; median of 3 RMs, intestinal biopsies, LC-MS/MS): 3,665 ng/g
- time of return of histone acetylation to near baseline level ([3]; CD4+ and CD8+ T cells, all RMs): ≤ 5 days postinfusion
- time of peak H3/H4 histone acetylation in blood CD4+ and CD8+ T cells ([3]; third RM (RM33)): 1 day postinfusion
- time of peak H3/H4 histone acetylation in blood CD4+ and CD8+ T cells ([3]; two of three RMs): 6 h postinfusion
- AUC of CSF/plasma [4]: 2%
- concentration found to readily reactivate HIV in vitro [5]: 5 nM
- CD3+ T cells in superficial LNs, area fraction ([6]; 6 h postinfusion): 40%
- CD3+ T cells in intestine, area fraction ([6]; 1 day postinfusion, three RMs, pretreatment 5.8%, not significant): 7.6%
- CD3+ T cells in superficial LNs, area fraction ([6]; 7 days postinfusion): 41%
- CD3+ T cells in mesenteric LNs, area fraction ([6]; animal RM71, 1 day postinfusion, pretreatment 31%): 43%
- CD3+ T cells in mesenteric LNs, area fraction ([6]; animals RM32 and RM33, 1 day postinfusion vs pretreatment, p > 0.05): virtually unchanged
- plasma cortisol levels after infusion [7]: remained elevated through 2 dpi
